Assay results from ChEMBL document CHEMBL1201862, “PubChem BioAssay data set” (2004).
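Dose response: 5 concentrations. Exposure: 48 h. Format: 96-well plates. Endpoint: linear interpolation; highest concentration if not reached. GI50 = concentration required for 50% inhibition of growth.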 The source made the active and inactive calls. Rule as the data show it: active = GI50 up to about 1.1 µM and inactive = higher.

Columns and labels:
Assay in all cases: NCI tumour cell line growth inhibition, 48 h
HOP-92 = system: HOP-92
OVCAR-5 = system: OVCAR-5
UACC-257 = system: UACC-257
IGROV-1 = system: IGROV-1
XF498 = system: XF498
SNB-78 = system: SNB-78
SK-MEL-5 = system: SK-MEL-5
M14 = system: M14
Malme-3M = system: Malme-3M
OVCAR-3 = system: OVCAR-3
OVCAR-4 = system: OVCAR-4
HL-60 = system: HL-60
HCC 2998 = system: HCC 2998
SF-295 = system: SF-295
A549 = system: A549
RXF 393 = system: RXF 393
COLO 205 = system: COLO 205
ACHN = system: ACHN
SK-OV-3 = system: SK-OV-3
OVCAR-8 = system: OVCAR-8
U-251 = system: U-251
A498 = system: A498
NCI-H226 = system: NCI-H226
SNB-19 = system: SNB-19
NCI-H23 = system: NCI-H23
HT-29 = system: HT-29
SR = system: SR
DMS-273 = system: DMS-273
HOP-62 = system: HOP-62
M19-MEL = system: M19-MEL
SW-620 = system: SW-620
DMS-114 = system: DMS-114
HCT-15 = system: HCT-15
DLD-1 = system: DLD-1
SF-268 = system: SF-268
SNB-75 = system: SNB-75
SN12C = system: SN12C
SK-MEL-2 = system: SK-MEL-2
LXFL 529 = system: LXFL 529
KM12 = system: KM12
EKVX = system: EKVX
SF-539 = system: SF-539
K562 = system: K562
CAKI-1 = system: CAKI-1
CCRF-CEM = system: CCRF-CEM
KM-20L2 = system: KM-20L2
HOP-18 = system: HOP-18
MOLT-4 = system: MOLT-4
TK-10 = system: TK-10
UACC-62 = system: UACC-62
NCI-H460 = system: NCI-H460
LOX IMVI = system: LOX IMVI
786-0 = system: 786-0
UO-31 = system: UO-31
RPMI-8226 = system: RPMI-8226
RXF 631 = system: RXF 631
NCI-H522 = system: NCI-H522
SK-MEL-28 = system: SK-MEL-28
HCT-116 = system: HCT-116

C[n+]1ccc(-c2cc[n+](C)cc2)cc1 [PARAQUAT DICHLORIDE]
GI50 (HOP-92): > 44.5 µM (inactive) | GI50 (OVCAR-5): 19.7 µM (inactive) | GI50 (UACC-257): 1.5 µM (inactive) | GI50 (IGROV-1): 18 µM (inactive) | GI50 (XF498): 3.74 µM (inactive) | GI50 (SNB-78): > 22.3 µM (inactive) | GI50 (SK-MEL-5): 11.5 µM (inactive) | GI50 (M14): 13.9 µM (inactive) | GI50 (Malme-3M): 0.265 µM (active) | GI50 (OVCAR-3): 14 µM (inactive) | GI50 (OVCAR-4): 1.55 µM (inactive) | GI50 (HL-60): 10 µM (inactive) | GI50 (HCC 2998): 14.5 µM (inactive) | GI50 (SF-295): > 19.6 µM (inactive) | GI50 (A549): 12.1 µM (inactive) | GI50 (RXF 393): 0.644 µM (active) | GI50 (COLO 205): 14.8 µM (inactive) | GI50 (ACHN): > 26.4 µM (inactive) | GI50 (SK-OV-3): > 24.7 µM (inactive) | GI50 (OVCAR-8): > 30 µM (inactive) | GI50 (U-251): > 32.8 µM (inactive) | GI50 (A498): > 32.6 µM (inactive) | GI50 (NCI-H226): 8.43 µM (inactive) | GI50 (SNB-19): 4.99 µM (inactive) | GI50 (NCI-H23): 12.2 µM (inactive) | GI50 (HT-29): 10.8 µM (inactive) | GI50 (SR): 11.6 µM (inactive) | GI50 (DMS-273): 10.5 µM (inactive) | GI50 (HOP-62): 14.7 µM (inactive) | GI50 (M19-MEL): 9.42 µM (inactive) | GI50 (SW-620): > 42 µM (inactive) | GI50 (DMS-114): 8.75 µM (inactive) | GI50 (HCT-15): > 32.4 µM | GI50 (DLD-1): > 30.3 µM (inactive) | GI50 (SF-268): > 22.5 µM (inactive) | GI50 (SNB-75): 33.5 µM (inactive) | GI50 (SN12C): 10.2 µM (inactive) | GI50 (SK-MEL-2): 2.69 µM (inactive) | GI50 (LXFL 529): > 37.1 µM (inactive) | GI50 (KM12): 5.83 µM (inactive) | GI50 (EKVX): > 30.6 µM (inactive) | GI50 (SF-539): 20.7 µM (inactive) | GI50 (K562): > 100 µM (inactive) | GI50 (CAKI-1): > 100 µM (inactive) | GI50 (CCRF-CEM): > 48.4 µM (inactive) | GI50 (KM-20L2): 17 µM (inactive) | GI50 (HOP-18): > 100 µM (inactive) | GI50 (MOLT-4): > 34.5 µM (inactive) | GI50 (TK-10): > 53.6 µM (inactive) | GI50 (UACC-62): 7.19 µM (inactive) | GI50 (NCI-H460): 9.42 µM (inactive) | GI50 (LOX IMVI): > 22.9 µM (inactive) | GI50 (786-0): > 100 µM (inactive) | GI50 (UO-31): > 100 µM (inactive) | GI50 (RPMI-8226): > 70 µM (inactive)

COC12OCCN(CCO)C1=CC(=O)C1(C)N=NC(C)C12 (centres undefined)
GI50 (HOP-92): > 100 µM (inactive) | GI50 (UACC-257): > 100 µM (inactive) | GI50 (IGROV-1): > 100 µM (inactive) | GI50 (SNB-78): > 100 µM (inactive) | GI50 (SK-MEL-5): > 100 µM (inactive) | GI50 (M14): > 100 µM (inactive) | GI50 (Malme-3M): > 100 µM (inactive) | GI50 (OVCAR-3): > 100 µM (inactive) | GI50 (RXF 631): > 100 µM (inactive) | GI50 (NCI-H522): > 100 µM (inactive) | GI50 (HCC 2998): > 100 µM (inactive) | GI50 (SF-295): > 100 µM (inactive) | GI50 (A549): > 100 µM (inactive) | GI50 (RXF 393): > 100 µM (inactive) | GI50 (COLO 205): > 100 µM (inactive) | GI50 (ACHN): > 100 µM (inactive) | GI50 (SK-OV-3): > 100 µM (inactive) | GI50 (OVCAR-8): > 100 µM (inactive) | GI50 (U-251): > 100 µM (inactive) | GI50 (A498): > 100 µM (inactive) | GI50 (NCI-H226): > 100 µM (inactive) | GI50 (NCI-H23): > 100 µM (inactive) | GI50 (SK-MEL-28): > 100 µM (inactive) | GI50 (HCT-116): > 100 µM (inactive) | GI50 (HT-29): > 100 µM (inactive) | GI50 (DMS-273): > 100 µM (inactive) | GI50 (M19-MEL): > 100 µM (inactive) | GI50 (SW-620): > 100 µM (inactive) | GI50 (DMS-114): > 100 µM (inactive) | GI50 (HCT-15): > 100 µM | GI50 (DLD-1): > 100 µM (inactive) | GI50 (SNB-75): > 100 µM (inactive) | GI50 (SN12C): > 100 µM (inactive) | GI50 (LXFL 529): > 100 µM (inactive) | GI50 (KM12): > 100 µM (inactive) | GI50 (EKVX): > 100 µM (inactive) | GI50 (SF-539): > 100 µM (inactive) | GI50 (K562): > 100 µM (inactive) | GI50 (CAKI-1): > 100 µM (inactive) | GI50 (CCRF-CEM): > 100 µM (inactive) | GI50 (HOP-18): > 100 µM (inactive) | GI50 (MOLT-4): > 100 µM (inactive) | GI50 (TK-10): > 100 µM (inactive) | GI50 (UACC-62): > 100 µM (inactive) | GI50 (NCI-H460): > 100 µM (inactive) | GI50 (LOX IMVI): > 100 µM (inactive) | GI50 (786-0): > 100 µM (inactive) | GI50 (UO-31): > 100 µM (inactive) | GI50 (RPMI-8226): > 100 µM (inactive)
